Laboratory results: patent publication US20240398845A1, “USE OF SGLT-2 INHIBITORS FOR THE PREVENTION AND/OR TREATMENT OF CARDIAC DISEASES IN NON-HUMAN MAMMALS EXCLUDING FELINES, IN PARTICULAR CANINES” (BOEHRINGER INGELHEIM VETMEDICA GMBH, priority 2021, published 2024)

Experiments:
[1] = tested on: client-owned dog patients diagnosed with DCM (modified NYHA class 2 and 3); test: Exploratory clinical field study "DCM" - outline; format: in vivo; conditions: dogs with DCM; velagliflozin 0.3 mg/kg bodyweight orally once daily; example headed Outline
Description: Client-owned dog patients (older than 1 year) diagnosed with DCM via physical and echocardiography (modified NYHA class 2 and 3) are treated orally and once daily with a velagliflozin dosage of 0.3 mg/kg bodyweight. During the study period the body weight, body condition score, blood pressure and the cardiovascular system are examined on a regular basis during the visits at the site by the investigator. Additionally, thoracic radiographs (in the right lateral and dorso ventral view), echocardiography (IVSd, LA diameter, Ao diameter, LVIDd, LVWd, LVWs, IVSd, LVPWd, EDV, ESV, EF, % FS, presence of effusion) and electrocardiography are performed. In order to obtain an overview as complete as possible regular blood tests include a complete hematology (white blood cells (WBC), WBC differential, red blood cells, hemoglobin, hematocrit, Heinz bodies, platelet count), a biochemistry panel (total protein, Albumin, Globulin, Alkaline phosphatase (ALP), Alanine transaminase (ALT), Aspartate transaminase (AST), Total bilirubin, Creatinine, Blood urea nitrogen or urea (BUN), Calcium, Sodium, Potassium, Chloride, Phosphorus, Glucose, Cholesterol, Triglycerides, Fructosamine), the measurement of total T4, ketone bodies and cardiac biomarkers (Plasma NT-pro BNP, Cardiac troponin I). […]

[2] = tested on: Beagle dogs with asymptomatic/preclinical ACVIM stage B2 MMVD; test: Exploratory laboratory study in dogs with asymptomatic/preclinical myxomatous mitral valve disease (MMVD); format: in vivo, dog
From the text: Echocardiographic findings in dogs with MMVD stage B2 include degenerative valvular changes, increased left atrial dimension (LA/AO-ratio≥1.6), and increased left ventricular end-diastolic dimensions normalized to body weight (LVIDDN≥1.7) (Keene et al., 2019). For evaluation of survival time a severity score (MINE score) based on the echocardiographic variables above, the cardiac contractility (fractional shortening, FS %), and transmitral peak E-wave velocity was initiated (Vezzosi T et al., J Vet Intern Med. 2021, 35(3):1238-1244). The MINE score is associate with the survival time and provides therefore prognostic information.
The objective of this study was to evaluate velagliflozin, a sodium-glucose co-transporter-2 inhibitor, as a treatment for dogs with asymptomatic/preclinical ACVIM stage B2 MMVD. Three Beagle dogs previously diagnosed with this condition by a veterinary cardiologist were included in the study.
Baseline assessments included body weight measurements, veterinary examinations, echocardiographs, urinalysis, blood collections for hematology, biochemistry, BHB, NT-proBNP, cTnI, and erythropoietin analysis as well as radiographs to assess heart size, pulmonary edema, and congestion. On study Day 0, once daily oral administration of velagliflozin (0.05 mg/kg bodyweight) was initiated. Veterinary examinations, urinalysis, and blood collections for analysis of the above-mentioned parameters were repeated on Days 32, 59, and 91. Echocardiographs were repeated on Days 23, 58, and 93. General health observations are conducted twice daily, and body weights measured approximately every 3 weeks.
Additionally, the “The Mitral Insufficiency Echocardiographic” score, a severity classification of myxomatous mitral valve disease (MMVD) in dogs (MINE score) was calculated (Vezzosi et al., 2021). This score as an easy-to-use echocardiographic classification of severity of MMVD based on routinely acquired echocardiographic variables. The hypothesis was that the MINE score is clinically effective since it is associated with median survival time of the animals (see tables 5 and 6 below).

[3] = tested on: dogs with occult or overt dilated cardiomyopathy (DCM)
[4] = Azul, Day 58, velagliflozin 0.05 mg/kg bodyweight oral once daily
[5] = case 100-006, overt DCM, during study

Compound: N#Cc1ccc([C@@H]2O[C@H](CO)[C@@H](O)[C@H](O)[C@H]2O)cc1Cc1ccc(C2CC2)cc1 [velagliflozin, Velagliflozin]
- clinical parameters (e.g. appetite, activity level and breathing) [1]: improve significantly
- survival time and time to event (overall death, cardiovascular death or hospitalization for heart failure) [1]: clinically relevant prolongation
- MINE severity classification ([2]; Azul, D93, moderate at baseline): severe
- LVIDDN reduction from baseline [2, 4]: 3.56%
- decrease from baseline in LA/Ao ratio [2, 4]: 17.3%
- NT-proBNP reduction from baseline ([2]; Azul, Day 59, within the reference range): 76.3%
- NT-proBNP reduction from baseline ([2]; Azul, Day 91): 45.8%
- Total MINE score ([2]; Azul, Day 93, base line 7 (Moderate), increase due to increase in FS %, might be due to cystitis): 8 (Increase due to increase in FS %, also showed an
- LVIDDN change versus baseline ([2]; Azul, Day 93, just above baseline): +0.81%
- LA/Ao ratio below baseline ([2]; Azul, Day 93, velagliflozin 0.05 mg/kg bodyweight oral once daily): 1.08%
- adverse event in one animal ([2]; Azul, during treatment, recovered): developed a cystitis
- LVIDDN (in words) ([2]; Azul, summary): no change
- LA/AO-ratio (in words) ([2]; Azul, summary at D93): no change
- LVIDDN (in words) ([2]; Birdie and Shelby, summary, within day-to-day variability): slight decrease (improvement)
- LVIDDN reduction from baseline ([2]; Birdie, Day 93): 5.25%
- MINE severity classification ([2]; Birdie, Day 93, Mild at base line): Mild (4-5)
- Total MINE score ([2]; Birdie, Day 93, base line 5 (Mild)): 5
- reduction from baseline in LA/Ao ratio ([2]; Birdie, Day 93, velagliflozin 0.05 mg/kg bodyweight oral once daily): 12.73%
- left atrial size (in words) ([2]; Birdie, summary, beyond day-to-day variability): normalization of the left atrial size
- NT-proBNP reduction from baseline ([2]; Shelby, Day 91, still above the reference range): 45.6%
- LVIDDN reduction from baseline ([2]; Shelby, Day 93): 3.54%
- MINE severity classification ([2]; Shelby, Day 93, Moderate at base line): Moderate (6-7)
- Total MINE score ([2]; Shelby, Day 93, base line 7 (Moderate), decrease due to improvement in left ventricular diameter): 6
- LA/AO-ratio (in words) ([2]; Shelby, summary, within day-to-day variability): slight increase (worsening)
- reduction in LA/Ao ratio from baseline ([2]; Shelby, velagliflozin 0.05 mg/kg bodyweight oral once daily): had not shown a reduction
- survival at the time of the interim analysis ([2]; all three dogs, D94): still alive
- blood glucose, renal function, or serum electrolytes ([2]; any time in any animal): no changes
- observations following dosing ([2]; attributed to oral administration of a liquid product): Lip smacking/licking, head shaking, grimacing, and salivating
- most frequent abnormal observation following initiation of treatment ([2]; group housed dogs, relationship to test product unknown, one instance also at baseline): vomit found within the housing pen
- changes in cTnI ([2]; three Beagle dogs, velagliflozin 0.05 mg/kg bodyweight oral once daily): do not appear to be showing a clinically significant trend
- hematology, biochemistry, or erythropoietin parameters ([2]; three Beagle dogs, velagliflozin 0.05 mg/kg bodyweight oral once daily, Days 32, 59, 91): No clinically significant changes
- glucosuria ([2]; three dogs, pharmacodynamic effectiveness): noted in all three dogs
- development of congestive heart failure (CHF) ([2]; three dogs, until D94, velagliflozin 0.05 mg/kg bodyweight once daily only): None of the study dogs developed congestive heart failure
- overall disease state ([2]; three dogs, until interim analysis at D94): stable disease states with signs of improvement
- creatinine and urea ([3]; both dogs with overt DCM): mild, however clinically not relevant increase
- survival times ([3]; both dogs with overt DCM treated with velagliflozin, no standard of care treatment): comparable to dogs receiving standard of care treatment
- left atrial and left ventricular size, and one of the cardiac biomarkers ([3]; both dogs with overt DCM, at D45, velagliflozin only): improvement
- left ventricular contractility ([3]; both dogs with overt DCM, no positive inotropic drug): remained poor
- body weight ([3]; case 100-006, overt DCM): did not reveal any significant changes
- creatinine [3, 5]: mild increase
- urea [3, 5]: moderate increase
- cardiac TnI (in words) ([3]; case 100-006, overt DCM, during the study period): increased
- blood glucose and electrolytes (Na and K) ([3]; case 100-006, overt DCM, entire study duration): remained within normal limits
- normalized left ventricular internal diastolic diameter (LVIDDN) (in words) ([3]; case 100-006, overt DCM, first 45 days): decrease
- NT-proBNP (in words) ([3]; case 100-006, overt DCM, first 45 days of the study, velagliflozin only): normalized
